Values after ≈ are worked out from the molar mass of the structure shown.
Key:
[1] = tested on: M. bovis, M. intracellulare, and M. smegmatis; type: cell-based, Mycobacterium species
[2] = tested on: M. tuberculosis electron transport system; test: Oxygen consumption assay; type: cell-based; settings: for electron transport system inhibition (conclusion): from oxygen consumption assay
[3] = target: M. tuberculosis MenA (Mycobacterium tuberculosis, UniProt P9WIP3); test: MenA enzyme inhibitory assay; type: biochemical; settings: for IC50: MenA Inhibition IC50, Mtb MenA, dose-response of DMMK formation
Sequence of M. tuberculosis MenA (P9WIP3 whole entry): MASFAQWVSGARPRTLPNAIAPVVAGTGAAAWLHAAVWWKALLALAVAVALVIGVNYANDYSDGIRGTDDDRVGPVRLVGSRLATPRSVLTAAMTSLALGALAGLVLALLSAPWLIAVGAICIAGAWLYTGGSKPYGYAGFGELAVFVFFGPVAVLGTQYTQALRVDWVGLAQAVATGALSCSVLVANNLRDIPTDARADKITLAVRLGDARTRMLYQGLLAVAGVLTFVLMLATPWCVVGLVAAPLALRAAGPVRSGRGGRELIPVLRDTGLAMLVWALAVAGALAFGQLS

[4] = tested on: M. bovis BCG; test: microbe, parasite or virus in culture; type: cell-based; settings: Mycobacterium tuberculosis variant bovis BCG
[5] = tested on: M. intracellulare ATCC15984; test: MIC, Mycobacterium species panel; type: cell-based
[6] = tested on: M. tuberculosis H37Rv; test: Microplate alamar blue assay; type: cell-based; settings: Mycobacterium tuberculosis, read-out: MIC against Mtb (MABA)
[7] = in vitro; settings: monkey
[8] = tested on: M. tuberculosis H37Rv; test: MIC, Mycobacterium species panel; type: cell-based

CCCCCC[C@H](CN1CCC(COc2cccc(C(=O)c3ccc(Cl)cc3)c2)CC1)OC(N)=O [(R)-12, (R)-1-(4-((3-(4-chlorobenzoyl)phenoxy)methyl)piperidin-1-yl)octan-2-yl carbamate]
killing concentration, other Mycobacterium species [1]: 3.0~6.5 μg/mL | electron transport system inhibition (conclusion) [2]: very weak (or are not) electron transport system inhibitors | fold better MenA enzyme inhibitory activity compared to the alcohol (R)-11 ([3]; Mtb MenA IC50 comparison): 6 fold

CCCCCC[C@H](CN1CCC(COc2cccc(C(=NOC)c3ccc(Cl)cc3)c2)CC1)OC(N)=O [(R)-13, (R)-1-(4-((3-((4-Chlorophenyl)(methoxyimino)methyl)phenoxy)methyl)piperidin-1-yl)octan-2-yl carbamate]
killing concentration, other Mycobacterium species [1]: 3.0~6.5 μg/mL | MIC [4]: 2.95 µg/mL (≈ 5.56 µM) | MIC [5]: 6.5 µg/mL (≈ 12.3 µM) | MIC [6]: 2.31 µg/mL (≈ 4.36 µM) | selectivity ratio [7]: > 10 | IC50 [3]: 1.2 µM

CCCCCCC[C@@H](O)c1cccc(CN2CCC(COc3cccc(C(=NOC)c4ccc(Cl)cc4)c3)CC2)c1 [(R)-15, (R)-(4-chlorophenyl)(3-((1-(3-(1-hydroxyoctyl)benzyl)piperidin-4-yl)methoxy)phenyl)methanone O-methyl oxime]
IC50 [3]: 15 µM

CCCCCC[C@H](CN1CCC(COc2ccc(C(=O)c3ccc(Cl)cc3)c(Cl)c2)CC1)OC(N)=O [(R)-17, (R)-1-(4-((3-chloro-4-(4-chlorobenzoyl)phenoxy)methyl)piperidin-1-yl)octan-2-yl carbamate]
electron transport system inhibition (conclusion) [2]: very weak (or are not) electron transport system inhibitors

CCCCCCC[C@@H](O)c1cccc(CN2CCC(COc3ccc(C(=NOC)c4ccc(Cl)cc4)c(Cl)c3)CC2)c1 [(R)-20, (R)-(2-Chloro-4-((1-(3-(1-hydroxyoctyl)benzyl)piperidin-4-yl)methoxy)phenyl)(4-chlorophenyl) methanone O-methyl oxime]
IC50 [3]: 15 µM

CCCCCCC[C@H](O)c1cccc(CN2CCC(COc3cccc(C(=O)c4ccc(Cl)cc4)c3)CC2)c1 [(S)-3, (S)-(4-chlorophenyl)(3-((1-(3-(1-hydroxyoctyl)benzyl)piperidin-4-yl)methoxy)phenyl) methanone]
IC50 [3]: 20 µM

CCCCCC[C@@H](CN1CCC(COc2ccc(C(=O)c3ccc(Cl)cc3)c(Cl)c2)CC1)OC(N)=O [(S)-17]
concentration showing decolorization of methylene blue ([2]; Mtb, 37 °C, 22h, above the MIC): 12.5 µg/mL

CCCCCCC[C@H](O)c1cccc(CN2CCC(COc3ccc(C(=NOC)c4ccc(Cl)cc4)c(Cl)c3)CC2)c1 [(S)-20, (S)-(2-Chloro-4-((1-(3-(1-hydroxyoctyl)benzyl)piperidin-4-yl)methoxy)phenyl)(4-chlorophenyl) methanone O-methyl oxime]
IC50 [3]: 20 µM

NNC(=O)c1ccncc1 [INH, isoniazid]
MIC [8]: 0.24 µg/mL (≈ 1.75 µM)

Reference: article PMC3375340 (Journal of Medicinal Chemistry, 2012)
